# Experimental data: patent publication US7247651B2, “2,7-substituted indoles” (Roche Palo Alto LLC, priority 2002, dated 2007)
# Molecular target: T1, recombinant human 5-HT6 receptor (Homo sapiens, UniProt P50406)
# T1 construct: expressed in transfected cells; cell membranes used
# Assay: in vitro radioligand binding, competition for [3H]LSD binding in membranes of HEK293 cells
# Conditions: [3H]LSD (5 nM), HEK293 cell membranes, pH 7.4, 37° C., 60 min
# Experimental: This example illustrates in vitro radioligand binding studies of Compound of Formula I.
# The binding activity of compounds of this invention in vitro was determined as follows. Duplicate determinations of ligand affinity are made by competing for binding of [^3H]LSD in cell membranes derived from HEK293 cells stably expressing recombinant human 5-HT6 receptor.
# All determinations were made in assay buffer containing 50 mM Tris-HCl, 10 mM MgSO4, 0.5 mM EDTA, 1 mM ascorbic acid, pH 7.4 at 37° C., in a 250 microliter reaction volume. Assay tubes containing [3H] LSD (5 nM), competing ligand, and membrane were incubated in a shaking water bath for 60 min. at 37° C., filtered onto Packard GF-B plates (pre-soaked with 0.3% PEI) using a Packard 96 well cell harvester and washed 3 times in ice cold 50 mM Tris-HCl. Bound [^3H] LSD was determined as radioactive counts per minute using Packard TopCount.
# Displacement of [3H]LSD from the binding sites was quantified by fitting concentration-binding data to a 4-parameter logistic equation:
# [formula] where Hill is the Hill slope, [ligand] is the concentration of competing radioligand and IC50 is the concentration of radioligand producing half-maximal specific binding of radioligand. The specific binding window is the difference between the Bmax and the basal parameters.
# Using the procedures of Example 6, compounds of Formula I were tested and found to be selective 5-HT6 antagonists.
# T1 sequence (P50406 whole entry): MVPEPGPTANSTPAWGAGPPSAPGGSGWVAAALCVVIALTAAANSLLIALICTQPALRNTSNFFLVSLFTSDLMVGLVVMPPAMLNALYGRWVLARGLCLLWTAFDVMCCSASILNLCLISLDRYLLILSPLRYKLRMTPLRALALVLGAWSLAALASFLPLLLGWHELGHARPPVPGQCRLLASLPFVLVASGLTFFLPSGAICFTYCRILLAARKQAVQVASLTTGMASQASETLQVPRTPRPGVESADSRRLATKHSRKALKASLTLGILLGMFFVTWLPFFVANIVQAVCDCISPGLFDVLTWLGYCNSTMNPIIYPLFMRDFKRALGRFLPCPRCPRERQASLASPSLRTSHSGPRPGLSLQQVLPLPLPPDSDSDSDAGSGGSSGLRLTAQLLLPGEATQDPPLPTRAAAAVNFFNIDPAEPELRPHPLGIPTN
row,SMILES,Ki
1,"O=S(=O)(c1ccccc1)c1cc2cccc(N3CCNCC3)c2[nH]1 [Compound 1, 2-Benzenesulfonyl-7-piperazin-1-yl-1H-indole]",0.501 nM
2,"CN1CCN(c2cccc3cc(S(=O)(=O)c4ccccc4)[nH]c23)CC1 [Compound 2, 2-Benzenesulfonyl-7-(4-methyl-piperazin-1-yl)-1H-indole]",0.794 nM
3,"O=S(=O)(c1cc2cccc(N3CCNCC3)c2[nH]1)c1cccc(Cl)c1Cl [Compound 3, 2-(2,3-Dichloro-benzenesulfonyl)-7-piperazin-1-yl-1H-indole]",0.2 nM
4,"CN1CCN(c2cccc3cc(S(=O)(=O)c4cccc(Cl)c4Cl)[nH]c23)CC1 [Compound 4, 2-(2,3-Dichloro-benzenesulfonyl)-7-(4-methyl-piperazin-1-yl)-1H-indole]",0.794 nM
5,"O=S(=O)(c1cc2cccc(N3CCNCC3)c2[nH]1)c1ccccc1F [Compound 5, 2-(2-Fluoro-benzenesulfonyl)-7-piperazin-1-yl-1H-indole]",0.501 nM
6,"O=S(=O)(c1ccccc1)c1cc2cccc(C3CCNCC3)c2[nH]1 [Compound 6, 2-Benzenesulfonyl-7-piperidin-4-yl-1H-indole]",0.631 nM
7,"CN1CCC(c2cccc3cc(S(=O)(=O)c4ccccc4)[nH]c23)CC1 [Compound 7, 2-Benzenesulfonyl-7-(1-methyl-piperidin-4-yl)-1H-indole]",1 nM
8,"CN1CCN(c2cccc3cc(S(=O)(=O)c4ccccc4C(F)(F)F)[nH]c23)CC1 [Compound 8, 7-(4-Methyl-piperazin-1-yl)-2-(2-trifluoromethyl-benzenesulfonyl)-1H-indole]",0.316 nM
9,"O=S(=O)(c1cc2cccc(N3CCNCC3)c2[nH]1)c1ccccc1C(F)(F)F [Compound 9, 7-Piperazin-1-yl-2-(2-trifluoromethyl-benzenesulfonyl)1H-indole]",0.316 nM
10,"CN1CCN(c2cccc3cc(S(=O)(=O)c4cccc(Br)c4)[nH]c23)CC1 [Compound 10, 2-(3-Bromo-benzenesulfonyl)-7-(4-methyl-piperazin-1-yl)-1H-indole]",0.251 nM
11,"O=S(=O)(c1cccc(Br)c1)c1cc2cccc(N3CCNCC3)c2[nH]1 [Compound 11, 2-(3-Bromo-benzenesulfonyl)-7-piperazin-1-yl-1H-indole]",0.501 nM
